Assay results: paper PMC10218234, “Design, Synthesis and Antitumor Activity of 1H-indazole-3-amine Derivatives” (International Journal of Molecular Sciences, 2023)
Read-outs that look alike come from different tables or passages of the source.

Experiments:
K562 cells = assay: MTT anti-proliferative assay, K562; type: cell-based; details: Homo sapiens, read-out: IC50 ± SD, K562
Procedure: (§1) The antiproliferative activity of the target indazole derivatives was evaluated against a panel of human cancer cell lines (human chronic myeloid leukemia cell lines K562; human lung cancer cell lines A549; human prostate cancer cell lines PC-3; human hepatoma cell lines HepG-2) in vitro, and human embryonic kidney cell lines HEK-293 were used to evaluate the cytotoxicity of a normal cell with high activity derivatives by MTT assay. Moreover, 5-fluorouracil (5-Fu), a broad-spectrum drug antitumor drug with therapeutic effects on various cancers, was used as a positive control.
(§2) Lung (A549), chronic myeloid leukemia (K562), prostate (PC3), and live (Hep-G2) cells were purchased from the Cell Bank of the Chinese Academy of Sciences (Kunming, China). A549, K562, and PC-3 cells were cultured in RPMI-1640 medium and the liver cells Hep-G2 were cultured in MEM medium. All mediums were supplemented with 10% FBS, 100 μg/mL penicillin and 100 μg/mL streptomycin. All cells were cultivated in a 5% CO2 incubator at 37 °C.
(§3) To investigate the anticancer activity of indazole derivatives, A549, K562, PC3, and Hep-G2 cells were treated with targets compounds respectively for 48 h in a range of concentrations (from 0.625 to 10 μM) and subjected to a proliferation assay using the MTT assay. Exponentially growing cells were seeded at a density of 5000 cells per well in 96-well plates containing 100 μL of fresh growth medium. After allowing the cells to attach for 24 h, target compounds were added. After incubation for 48 h, viable cells were stained with MTT (0.5 mg/mL) for 4 h, and the produced formazan crystals were dissolved with 150 µL of dimethyl sulfoxide. Absorbance was measured at 490 nm using an automated microplate reader (Tecan, Infinite M200 Pro, Männedorf, Switzerland). The relative cell viability was calculated according to the following equation: Cell viability%=experimental OD value/control OD value×100%Cell inhibition%=control OD value−experimental OD value/control OD value×100%
(§4) Cell inhibition%=control OD value−experimental OD value/control OD value×100%

A549 cells = assay: MTT anti-proliferative assay, A549; type: cell-based; details: Homo sapiens, read-out: IC50 ± SD, A549
Procedure: as §1, §2, §3, §4

PC-3 cells = assay: MTT anti-proliferative assay, PC-3; type: cell-based; details: Homo sapiens, PC-3, 48 h
Procedure: as §1, §2
as §3, with “Exponentially” for “To investigate the anticancer activity of indazole derivatives, A549, K562, PC3, and Hep-G2 cells were treated with targets compounds respectively for 48 h in a range of concentrations (from 0.625 to 10 μM) and subjected to a proliferation assay using the MTT assay. Exponentially”
as §4

Hep-G2 cells = assay: MTT anti-proliferative assay, Hep-G2; type: cell-based; details: Homo sapiens, HepG2, 48 h, read-out: IC50 ± SD, Hep-G2
Procedure: as §1, §2, §3, §4

[1] = Table 1, read-out: IC50 ± SD, PC-3
[2] = Table 2, read-out: IC50 ± SD, PC-3

IC50 (K562 cells; Table 1, 48 h) | IC50 (A549 cells; Table 1, 48 h) | IC50 (PC-3 cells; [1]) | IC50 (Hep-G2 cells; Table 1, 48 h) | melting point | IC50 (K562 cells; Table 2, 48 h) | IC50 (A549 cells; Table 2, 48 h) | IC50 (PC-3 cells; [2]) | IC50 (Hep-G2 cells; Table 2, 48 h) | SMILES
6.97 ± 0.99 µM | 5.25 ± 0.57 µM | 38.4 ± 24.1 µM | > 50 µM |  |  |  |  |  | O=C(CSc1ccc(F)cc1)Nc1n[nH]c2ccc(-c3cccc(F)c3)cc12 [5b]
9.33 ± 0.64 µM | 5.63 ± 0.59 µM | 60.7 ± 2.91 µM | 4.76 ± 0.63 µM |  |  |  |  |  | O=C(CSc1ccc(Br)cc1)Nc1n[nH]c2ccc(-c3cccc(F)c3)cc12 [5c]
27.2 ± 0.66 µM | 16.6 ± 3.22 µM | 19.7 ± 2.38 µM | 45.9 ± 2.24 µM |  |  |  |  |  | O=C(CSc1ccccc1Br)Nc1n[nH]c2ccc(-c3cccc(F)c3)cc12 [5d]
> 50 µM | 7.23 ± 0.4 µM | 12.8 ± 3.09 µM | 8.2 ± 0.91 µM |  |  |  |  |  | COc1ccc(SCC(=O)Nc2n[nH]c3ccc(-c4ccc(F)cc4)cc23)cc1 [5e]
> 50 µM | 4.48 ± 0.24 µM | 12.5 ± 4.55 µM | > 50 µM | 215 to 216 °C |  |  |  |  | COc1ccc(SCC(=O)Nc2n[nH]c3ccc(-c4ccc(OC(F)(F)F)cc4)cc23)cc1 [5f]
10.3 ± 1.14 µM | 6.4 ± 0.26 µM | 18.6 ± 5.73 µM | 11.9 ± 0.72 µM | 178 to 200 °C |  |  |  |  | O=C(CSc1ccc(F)cc1)Nc1n[nH]c2ccc(-c3ccc(Cl)c(F)c3)cc12 [5g]
14.3 ± 2.13 µM | 9.26 ± 0.37 µM | 13 ± 7.53 µM | 11.3 ± 0.75 µM | 267 to 268 °C |  |  |  |  | O=C(CSc1ccc(Br)cc1)Nc1n[nH]c2ccc(-c3ccc(Cl)c(F)c3)cc12 [5h]
6.27 ± 1.22 µM | 4.43 ± 0.15 µM | 6.57 ± 1.1 µM | 5.5 ± 0.17 µM | 243 to 246 °C |  |  |  |  | O=C(CSc1ccc([N+](=O)[O-])cc1)Nc1n[nH]c2ccc(-c3ccc(Cl)c(F)c3)cc12 [5i]
8.49 ± 1.87 µM | 3.99 ± 0.16 µM | 14.7 ± 4.55 µM | 5.36 ± 0.25 µM | 204 to 205 °C |  |  |  |  | COc1ccc(SCC(=O)Nc2n[nH]c3ccc(-c4cc(F)cc(F)c4)cc23)cc1 [5j]
8.19 ± 1.43 µM | 14.1 ± 1.71 µM | > 50 µM | 14.9 ± 0.77 µM | 199 to 200 °C |  |  |  |  | O=C(CSc1ccccc1Br)Nc1n[nH]c2ccc(-c3cc(F)cc(F)c3)cc12 [5l]
13.1 ± 0.46 µM | 20.2 ± 3.14 µM | > 50 µM | 35.6 ± 4.21 µM | 200 to 202 °C |  |  |  |  | O=C(CSc1ccc(Cl)cc1)Nc1n[nH]c2ccc(-c3cc(F)cc(F)c3)cc12 [5m]
7.25 ± 1.07 µM | 20 ± 1.19 µM | > 50 µM | 6.57 ± 0.13 µM | 193 to 194 °C |  |  |  |  | O=C(CSc1cccc(Cl)c1)Nc1n[nH]c2ccc(-c3cc(F)cc(F)c3)cc12 [5n]
8.09 ± 1.27 µM | 6.64 ± 0.47 µM | 12.5 ± 2.1 µM | 8.3 ± 0.56 µM |  |  |  |  |  | O=C(CSc1ccc([N+](=O)[O-])cc1)Nc1n[nH]c2ccc(-c3cc(F)cc(F)c3)cc12 [5o]
15.42 ± 0.15 µM | 16 ± 0.37 µM | 22.5 ± 9.13 µM | 7.14 ± 0.33 µM |  |  |  |  |  | O=C(CSc1ccncc1)Nc1n[nH]c2ccc(-c3cc(F)cc(F)c3)cc12 [5p]
14.3 ± 2.13 µM | 16.2 ± 1.46 µM | 7.81 ± 0.64 µM | 6.3 ± 0.03 µM |  |  |  |  |  | O=C(CSc1ncccn1)Nc1n[nH]c2ccc(-c3cc(F)cc(F)c3)cc12 [5q]
 |  |  |  | 200 to 201 °C | 18.6 ± 2.14 µM | 19.9 ± 1.15 µM | 9.69 ± 0.26 µM | 1.69 ± 0.68 µM | COc1ccc(-c2ccc3[nH]nc(NC(=O)CN4CCN(c5ccc(Cl)c(Cl)c5)CC4)c3c2)cc1 [6b]
 |  |  |  | 188 to 189 °C | > 50 µM | 24 ± 2.92 µM | > 50 µM | 1.23 ± 0.39 µM | COc1ccc(-c2ccc3[nH]nc(NC(=O)CN4CCN(c5ccc(OC)cc5)CC4)c3c2)cc1 [6c]
 |  |  |  | 187 to 189 °C | 18.2 ± 2.91 µM | 17.6 ± 4.11 µM | 17.6 ± 1.4 µM | > 50 µM | COc1ccc(-c2ccc3[nH]nc(NC(=O)CN4CCN(c5ccc(C(F)(F)F)cc5)CC4)c3c2)cc1 [6d]

IC50 (K562 cells; Table 1, 48 h) | IC50 (A549 cells; Table 1, 48 h) | IC50 (PC-3 cells; [1]) | IC50 (Hep-G2 cells; Table 1, 48 h) | melting point | IC50 (K562 cells; Table 2, 48 h) | IC50 (A549 cells; Table 2, 48 h) | IC50 (PC-3 cells; [2]) | IC50 (Hep-G2 cells; Table 2, 48 h) | SMILES
 |  |  |  | 140 to 141 °C | 8.85 ± 0.26 µM | 12.8 ± 0.78 µM | 7.15 ± 0.14 µM | > 50 µM | COc1ccc(-c2ccc3[nH]nc(NC(=O)CN4CCN(Cc5ccc(Cl)cc5)CC4)c3c2)cc1 [6e]
 |  |  |  |  | 11.9 ± 0.85 µM | > 50 µM | 41.7 ± 27.9 µM | 9.56 ± 0.84 µM | O=C(CN1CCN(c2ccc(Cl)c(Cl)c2)CC1)Nc1n[nH]c2ccc(-c3cc(F)cc(F)c3)cc12 [6f]
 |  |  |  | 170 to 171 °C | 6.61 ± 0.38 µM | 15.8 ± 2.98 µM | 6.81 ± 1.09 µM | 2.35 ± 0.96 µM | O=C(CN1CCN(c2ccc(C(F)(F)F)cc2)CC1)Nc1n[nH]c2ccc(-c3cc(F)cc(F)c3)cc12 [6g]
 |  |  |  |  | 13.2 ± 1.75 µM | 15.1 ± 1.36 µM | 8.63 ± 0.57 µM | 2.75 ± 0.78 µM | O=C(CN1CCN(c2ccc(F)cc2F)CC1)Nc1n[nH]c2ccc(-c3cc(F)cc(F)c3)cc12 [6h]
 |  |  |  | 184 to 186 °C | 13.2 ± 1.44 µM | 28.6 ± 2.52 µM | 12.8 ± 2.95 µM | 2.58 ± 0.42 µM | O=C(CN1CCN(c2ccc(Br)cc2)CC1)Nc1n[nH]c2ccc(-c3cc(F)cc(F)c3)cc12 [6i]
 |  |  |  | 179 to 181 °C | 7.78 ± 0.1 µM | 20.3 ± 1.24 µM | 7.58 ± 1.01 µM | 3.87 ± 0.47 µM | O=C(CN1CCN(c2ccc(Cl)cc2)CC1)Nc1n[nH]c2ccc(-c3cc(F)cc(F)c3)cc12 [6j]
 |  |  |  | 180 to 182 °C | 11.2 ± 0.56 µM | 7.83 ± 1.06 µM | 4.25 ± 0.13 µM | 1.61 ± 0.28 µM | O=C(CN1CCN(c2ccccc2)CC1)Nc1n[nH]c2ccc(-c3cc(F)cc(F)c3)cc12 [6k]
 |  |  |  | 200 to 201 °C | 14 ± 0.49 µM | 12.9 ± 0.21 µM | 2.89 ± 0.16 µM | 7.65 ± 3.34 µM | O=C(CN1CCN(c2ccncc2)CC1)Nc1n[nH]c2ccc(-c3cc(F)cc(F)c3)cc12 [6l]
 |  |  |  |  | 17.9 ± 3.14 µM | 22.6 ± 6.53 µM | 19.9 ± 2.71 µM | 1.51 ± 0.25 µM | O=C(CN1CCN(c2ccc(Cl)c(Cl)c2)CC1)Nc1n[nH]c2ccc(-c3ccc(Cl)c(F)c3)cc12 [6m]
 |  |  |  | 174 to 176 °C | 13.3 ± 1.4 µM | 18.7 ± 3.1 µM | 34.8 ± 4.37 µM | 4.76 ± 0.63 µM | COc1ccc(N2CCN(CC(=O)Nc3n[nH]c4ccc(-c5ccc(Cl)c(F)c5)cc34)CC2)cc1 [6n]
 |  |  |  | 163 to 165 °C | > 50 µM | 13.6 ± 0.53 µM | 32.1 ± 2.26 µM | 2.38 ± 0.37 µM | O=C(CN1CCN(c2ccccc2Cl)CC1)Nc1n[nH]c2ccc(-c3ccc(Cl)c(F)c3)cc12 [6p]
 |  |  |  | 160 to 162 °C | 5.61 ± 1.14 µM | 12.8 ± 2.66 µM | 10.7 ± 1.66 µM | 2.7 ± 0.47 µM | O=C(CN1CCN(c2ccc(F)cc2F)CC1)Nc1n[nH]c2ccc(-c3ccc(Cl)c(Cl)c3)cc12 [6q]
 |  |  |  |  | 10 ± 0.94 µM | 15.8 ± 1.38 µM | 27.9 ± 26.1 µM | > 50 µM | O=C(CN1CCN(c2ccc(Br)cc2)CC1)Nc1n[nH]c2ccc(-c3ccc(Cl)c(Cl)c3)cc12 [6r]
 |  |  |  | 179 to 182 °C | 10.8 ± 0.68 µM | 20.4 ± 8.08 µM | 20.3 ± 4.71 µM | 2.92 ± 1.41 µM | O=C(CN1CCN(c2ccc(Cl)cc2)CC1)Nc1n[nH]c2ccc(-c3ccc(Cl)c(Cl)c3)cc12 [6s]
 |  |  |  | 194 to 197 °C | 11.1 ± 0.69 µM | 40.9 ± 6.54 µM | 19 ± 0.58 µM | 1.98 ± 0.35 µM | N#Cc1ccc(N2CCN(CC(=O)Nc3n[nH]c4ccc(-c5ccc(Cl)c(Cl)c5)cc34)CC2)cc1 [6t]
9.32 ± 0.59 µM | 4.66 ± 0.45 µM | 15.5 ± 1.33 µM | 12.7 ± 1.31 µM |  |  |  |  |  | COc1ccc(SCC(=O)Nc2n[nH]c3ccc(-c4cccc(F)c4)cc23)cc1 [compound 5a]
 |  |  |  |  | 5.19 ± 0.29 µM | 8.21 ± 0.56 µM | 6.12 ± 0.1 µM | 5.62 ± 1.76 µM | O=C(CN1CCN(c2ccc(Cl)c(Cl)c2)CC1)Nc1n[nH]c2ccc(-c3cccc(F)c3)cc12 [compound 6a]
